Experimental data from patent US6413517B1, “Identification of broadly reactive DR restricted epitopes” (Epimmune, Inc., priority 1997, dated 2002).
Where two headings read alike, the source gives them in different places.

Columns and labels:
[1] = biological target: T1, DRB1*0101 (DR1) (Homo sapiens, UniProt P01903+P01911, A100R/D57E/F55L/F60I/F76Y/I96L/L162R/M171V/P40L/Q125E/R42F/V115G/Y59C); assay: biochemical; format: binding; details: Binding Capacity (IC 50% nM) DR1,4,7 DRB1
T1 construct: Epstein-Barr virus (EBV) transformed homozygous cell lines were used as sources; endogenous in cells; host or cells: LG2 (EBV-transformed homozygous B cell line)

[2] = biological target: T2, DRB1*0802 (DR8w2) (Homo sapiens, UniProt P01903+P01911, A100R/A103L/A169T/F76Y/H45Y/I96F/K41T/L162R/M171V/P40S/Q125H/Q178H/Q39Y/Q99D/R218S/R42G/S66Y/V115G/W38E); assay: biochemical; format: binding
T2 construct: Epstein-Barr virus (EBV) transformed homozygous cell lines were used as sources; endogenous in cells; host or cells: OLL (EBV-transformed homozygous B cell line)

[3] = biological target: T3, DRB1*0301 (DR3w17) (Homo sapiens, UniProt P01903+P01911, A100K/A102G/A103R/A169T/F55Y/I96L/K41T/L162R/M171V/P40S/Q125H/Q178H/Q39Y/R42S/S66N/T106N/T262R/W38E/Y61H); assay: biochemical; details: Binding Capacity (IC50% nM) DR3
[4] = biological target: T4, DRB1*0901 (DR9) (Homo sapiens, UniProt P01903+P01911, A100R/A103E/D57H/D86V/F55Y/F60I/F76Y/I96F/K127E/L162R/M171V/P40D/Q125H/Q99R/R33Q/R42F/S133A/S66N/T210M/V115G/W38K/Y107V/Y59G/Y89S); assay: biochemical; format: binding
T4 construct: Epstein-Barr virus (EBV) transformed homozygous cell lines were used as sources; endogenous in cells

[5] = biological target: T5, DRB1*0401 (DR4w4) (Homo sapiens, UniProt P01903+P01911, A100K/A169T/F76Y/I96L/K127E/L162R/M171V/N62H/P40V/Q125Y/R42H/S133A/S149N/S66Y/V115G/V209L/W38E); assay: biochemical; format: binding
T5 construct: Epstein-Barr virus (EBV) transformed homozygous cell lines were used as sources; endogenous in cells; host or cells: PREISS (EBV-transformed homozygous B cell line)

[6] = biological target: T3, DRB1*0301 (DR3w17); details: read-out: Binding Capacity (IC 50% nM) Other Alleles DR3
[7] = biological target: T6, DRB1*0701 (DR7) (Homo sapiens, UniProt P01903+P01911, A100R/A102G/A103Q/D57E/D86V/E43K/F76Y/K127E/L162R/M171V/P40G/Q125H/Q99D/R33Q/R42Y/R54Q/S133A/S66F/T210M/V115G/Y107V/Y59L/Y89S); assay: biochemical; format: binding
T6 construct: Epstein-Barr virus (EBV) transformed homozygous cell lines were used as sources; endogenous in cells; host or cells: PITOUT (EBV-transformed homozygous B cell line)

[8] = biological target: T7, DRB1*1302 (DR6w19) (Homo sapiens, UniProt P01903+P01911, A100E/A169T/K41T/L162R/M171V/P40S/Q125H/Q178H/Q39Y/Q99D/R42S/S66N/T262R/V115G/W38E/Y61H); assay: biochemical; format: binding
T7 construct: Epstein-Barr virus (EBV) transformed homozygous cell lines were used as sources; the source of Class II molecules the EBV transformed homozygous cell line H0301; endogenous in cells; host or cells: H0301 (EBV-transformed homozygous B cell line)

[9] = biological target: T8, DRB1*1101 (DR5w11) (Homo sapiens, UniProt P01903+P01911, A100R/A169T/A87E/I96F/K41T/L162R/M171V/P40S/Q125H/Q178H/Q39Y/Q99D/R42S/S66Y/T262R/V115G/W38E); assay: biochemical; format: binding
T8 construct: Epstein-Barr virus (EBV) transformed homozygous cell lines were used as sources; endogenous in cells; host or cells: SWEIG (EBV-transformed homozygous B cell line)

[10] = biological target: T9, DRB1*1501 (DR2w2b) (Homo sapiens, UniProt P01903+P01911); assay: biochemical; format: binding
T9 construct: expressed in transfected cells; host or cells: transfected fibroblasts L466.1

[11] = biological target: T10, DRB1*1201 (DR5w12) (Homo sapiens, UniProt P01903+P01911, A100R/A169T/D57E/D86V/F55L/H45Y/K41T/L162R/M171V/P40S/Q125H/Q178H/Q39Y/Q99D/R42G/S66L/T262R/V114A/V67L/W38E/Y59H/Y61H/Y89S); assay: biochemical; format: binding
T10 construct: Epstein-Barr virus (EBV) transformed homozygous cell lines were used as sources; endogenous in cells; host or cells: Herluf (EBV-transformed homozygous B cell line)

[12] = biological target: T11, DRB1*0405 (DR4w15) (Homo sapiens, UniProt P01903+P01911, A100R/A169T/D86S/F76Y/I96L/K127E/L162R/M171V/N62H/P40V/Q125Y/R42H/S133A/S149N/S66Y/V115G/V209L/W38E); assay: biochemical; format: binding
T11 construct: Epstein-Barr virus (EBV) transformed homozygous cell lines were used as sources; endogenous in cells; host or cells: KT3 (EBV-transformed homozygous B cell line)

[13] = biological target: T12, DRB5*0101 (DR2w2a) (Homo sapiens, UniProt P01903+Q30154); assay: biochemical; format: binding
T12 construct: Epstein-Barr virus (EBV) transformed homozygous cell lines were used as sources; endogenous in cells; host or cells: GM3107 (EBV-transformed homozygous B cell line)

[14] = read-out: Binding Capacity (IC 50% nM) Other Alleles DR8w2
[15] = Binding Capacity (IC 50% nM) Other Alleles DR9
[16] = Binding Capacity (IC 50% nM) DR1,4,7 DR4w4
[17] = Binding Capacity (IC 50% nM) DR1,4,7 DR7
[18] = Binding Capacity (IC50% nM) DR6w19
[19] = Binding Capacity (IC 50% nM) Other Alleles DR6w19
[20] = read-out: Binding Capacity (IC 50% nM) Other Alleles DR5w11
[21] = read-out: Binding Capacity (IC 50% nM) Other Alleles DR2w2b
[22] = Binding Capacity (IC50% nM) DR5w12
[23] = read-out: Binding Capacity (IC 50% nM) Other Alleles DR5w12
[24] = Binding Capacity (IC 50% nM) Other Alleles DR4w15
[25] = Binding Capacity (IC 50% nM) Other Alleles DR2w2a
[26] = Binding Capacity (IC50% nM) DR8w2
[27] = Binding Capacity (IC50% nM) DR9
[28] = read-out: Binding Capacity (IC 50% nM) Other Alleles DR9
[29] = Binding Capacity (IC 50% nM) Other Alleles DR2w2b
[30] = read-out: Binding Capacity (IC 50% nM) Other Alleles DR4w15
[31] = read-out: Binding Capacity (IC 50% nM) Other Alleles DR2w2a
[32] = read-out: Binding Capacity (IC 50% nM) Other Alleles DR6w19

T8 sequence (P01903 26-254, other chains not shown): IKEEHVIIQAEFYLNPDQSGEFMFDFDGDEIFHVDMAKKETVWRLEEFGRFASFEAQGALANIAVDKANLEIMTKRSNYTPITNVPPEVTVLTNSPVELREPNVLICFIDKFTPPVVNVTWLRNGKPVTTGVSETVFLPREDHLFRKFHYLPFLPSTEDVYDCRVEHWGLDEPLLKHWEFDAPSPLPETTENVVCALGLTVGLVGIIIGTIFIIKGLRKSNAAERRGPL

Row | SMILES | IC50 [1] [nM] | IC50 [2, 14] [nM] | IC50 [3] [nM] | IC50 [4, 15] [nM] | IC50 [5, 16] [nM] | IC50 [6] [nM] | IC50 [7, 17] [nM] | IC50 [8, 18] [nM] | IC50 [8, 19] [nM] | IC50 [9, 20] [nM] | IC50 [10, 21] [nM] | IC50 [11, 22] [nM] | IC50 [11, 23] [nM] | IC50 [12, 24] [nM] | IC50 [13, 25] [nM] | IC50 [2, 26] [nM] | IC50 [4, 27] [nM] | IC50 [4, 28] [nM] | IC50 [10, 29] [nM] | IC50 [12, 30] [nM] | also measured
1 | CC[C@H](C)[C@H](N)C(=O)N1CCC[C@H]1C(=O)N[C@@H](CCC(N)=O)C(=O)N[C@@H](CCC(=O)O)C(=O)N[C@@H](Cc1c[nH]c2ccccc12)C(=O)N[C@@H](CCCCN)C(=O)N1CCC[C@H]1C(=O)N[C@@H](C)C(=O)N[C@H](C(=O)N[C@H](C(=O)N[C@H](C(=O)N[C@@H](CCCCN)C(=O)N[C@H](C(=O)N[C@@H](CC(C)C)C(=O)N1CCC[C@H]1C(=O)N[C@@H](C)C(=O)O)C(C)C)C(C)C)[C@@H](C)O)[C@@H](C)CC [Peptide 1136.21] | < 1000 | > 1000 | > 10000 | < 1000 | < 1000 | > 1000 | < 1000 | 259 | < 1000 | > 1000 | > 1000 | > 10000 | > 1000 | < 1000 | < 1000 |  |  |  |  |  | 
2 | CC[C@H](C)[C@H](NC(=O)[C@H](CC(=O)O)NC(=O)[C@H](CC(C)C)NC(=O)[C@@H](NC(=O)CNC(=O)[C@@H](NC(=O)[C@@H](NC(=O)[C@@H](NC(=O)[C@@H](NC(=O)[C@H](C)NC(=O)[C@H](CC(C)C)NC(=O)[C@@H](NC(=O)[C@H](CC(N)=O)NC(=O)[C@H](CO)NC(=O)[C@H](CC(C)C)NC(=O)[C@@H](N)CC(N)=O)C(C)C)[C@@H](C)O)[C@@H](C)CC)[C@@H](C)O)[C@@H](C)O)C(C)C)C(=O)O [Peptide 1136.24] | < 1000 | > 1000 | > 10000 |  |  | > 1000 | < 1000 |  | < 1000 | > 1000 |  | > 10000 | > 1000 |  |  | > 10000 | > 10000 | > 1000 | < 1000 | > 1000 | IC50 ([5]; read-out: Binding Capacity (IC 50% nM) DR1,4,7 DR4w4): > 1000 nM; IC50 ([9]; Binding Capacity (IC50% nM) DR5w11): > 10000 nM; IC50 [13, 31]: > 1000 nM
3 | CC[C@H](C)[C@H](NC(=O)[C@H](CC(C)C)NC(=O)[C@H](CC(=O)O)NC(=O)[C@@H](NC(=O)[C@H](Cc1ccccc1)NC(=O)[C@H](Cc1ccc(O)cc1)NC(=O)[C@H](Cc1c[nH]cn1)NC(=O)[C@H](Cc1c[nH]cn1)NC(=O)[C@@H](N)[C@@H](C)O)C(C)C)C(=O)NCC(=O)NCC(=O)N[C@@H](C)C(=O)N[C@@H](CCSC)C(=O)N[C@@H](CC(C)C)C(=O)N[C@@H](CO)C(=O)N[C@@H](CC(C)C)C(=O)O [Peptide 1136.47] | < 1000 | > 1000 | > 10000 |  | < 1000 | > 1000 |  | > 10000 |  | > 1000 |  | > 10000 | > 1000 |  | < 1000 | > 10000 | > 10000 | > 1000 | < 1000 | > 1000 | IC50 ([7]; read-out: Binding Capacity (IC 50% nM) DR1,4,7 DR7): > 1000 nM; IC50 [8, 32]: > 1000 nM
4 | CC(C)[C@H](NC(=O)[C@H](CO)NC(=O)[C@@H](NC(=O)[C@H](C)NC(=O)[C@H](CO)NC(=O)[C@H](CO)NC(=O)[C@H](C)NC(=O)[C@H](C)NC(=O)[C@H](Cc1ccc(O)cc1)NC(=O)[C@@H](NC(=O)[C@H](CO)NC(=O)CNC(=O)[C@H](CCC(N)=O)NC(=O)[C@@H]1CCCN1C(=O)[C@@H](N)CCC(=O)O)[C@@H](C)O)[C@@H](C)O)C(=O)N[C@@H](CC(=O)O)C(=O)O [Peptide 1136.71] | < 1000 | > 1000 | > 10000 | < 1000 | < 1000 | > 1000 | < 1000 | > 10000 |  | > 1000 | > 1000 | > 10000 | > 1000 | < 1000 |  | > 10000 |  |  |  |  | IC50 [8, 32]: > 1000 nM; IC50 ([10]; Binding Capacity (IC50% nM) DR2w2b): > 10000 nM; IC50 [13, 31]: > 1000 nM
